Measurements as given in patent publication US12234229B2, “Sphingosine kinase inhibitor amidoxime prodrugs” (University of Virginia Patent Foundation, priority 2016, dated 2025).

Experiments:
[1] = test system: sphingosine kinase type 2 (SphK2); assay: Blood sphingosine 1-phosphate (S1P) in mice after oral dosing, LC-MS-MS; assay type: in vivo; conditions: C57Bl/6 mice, oral gavage 20 mg/kg, blood drawn immediately, at 2 h, 6 and 24 h, FIG. 1A
Protocol: FIGS. 1A-1B. Four C57Bl/6 mice were dosed by oral gavage with 20 mg/kg of Compound 6. At the indicated times, blood was drawn, whole prepared for analysis, and the amount sphingosine 1-phosphate (S1P) was quantified by LC-MS-MS (FIG. 1A). The rise in S1P is indicative of inhibition of sphingosine kinase type 2 (SphK2).
Four C57Bl/6 mice were dosed by oral gavage with 20 mg/kg of Compound 6 (Example 113). Blood was drawn immediately, at 2h, 6, and 24 h after administration, whole prepared for analysis, and the amount of sphingosine 1-phosphate (S1P) was quantified by LC-MS-MS, as shown in FIG. 1A.

[2] = molecular target: T1, human sphingosine kinase type 2 (hSPHK2) (Homo sapiens, UniProt Q9NRA0); assay: Sphingosine kinase assay, recombinant human SPHK2 ([32P]S1P product, scintillation counting); assay type: biochemical; conditions: read-out: activity hSPHK2 (range estimates of KI values)
T1 construct: purchased; host or cells: Sf9 insect cells (baculovirus)
T1 sequence (Q9NRA0 1-654): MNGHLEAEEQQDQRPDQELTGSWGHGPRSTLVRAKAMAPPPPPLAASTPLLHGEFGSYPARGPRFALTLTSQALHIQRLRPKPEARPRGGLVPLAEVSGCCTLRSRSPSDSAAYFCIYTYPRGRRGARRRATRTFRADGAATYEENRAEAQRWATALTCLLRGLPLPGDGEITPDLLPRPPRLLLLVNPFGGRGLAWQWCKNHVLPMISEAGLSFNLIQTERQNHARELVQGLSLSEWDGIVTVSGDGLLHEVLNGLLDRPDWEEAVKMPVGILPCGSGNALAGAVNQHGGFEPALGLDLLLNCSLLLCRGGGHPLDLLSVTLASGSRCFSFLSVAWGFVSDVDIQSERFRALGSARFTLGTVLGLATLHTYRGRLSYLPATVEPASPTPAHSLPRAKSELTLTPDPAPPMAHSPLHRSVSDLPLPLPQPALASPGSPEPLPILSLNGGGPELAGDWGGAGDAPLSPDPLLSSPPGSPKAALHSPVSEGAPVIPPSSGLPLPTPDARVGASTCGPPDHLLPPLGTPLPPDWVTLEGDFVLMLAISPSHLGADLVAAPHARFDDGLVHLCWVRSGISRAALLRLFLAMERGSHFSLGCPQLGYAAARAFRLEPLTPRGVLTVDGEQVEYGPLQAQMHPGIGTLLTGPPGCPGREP
Protocol: (§1) Recombinant baculovirus encoding human sphingosine kinase type 1 (SPHK1) was used to infect Sf9 insect cells and after 2-5 days, cleared lysates were prepared and used without further purification. Human SPHK2, which was partially purified from baculovirus-infected Sf9 cell lysates, was purchased from a commercial source. Sphingosine kinase assays were performed using standard protocols. Product [^32P]S1P was recovered by binding to cation exchange paper and quantified by scintillation counting.

[3] = molecular target: T2, human sphingosine kinase type 1 (hSPHK1) (Homo sapiens, UniProt Q9NYA1); assay: Sphingosine kinase assay, recombinant human SPHK1 ([32P]S1P product, scintillation counting); assay type: biochemical; conditions: read-out: activity hSPHK1 (range estimates of KI values)
T2 construct: made in house; host or cells: Sf9 insect cells (baculovirus)
Protocol: as §1

[4] = patients, 1-yr trial; cited from earlier work

T2 sequence (Q9NYA1 whole entry): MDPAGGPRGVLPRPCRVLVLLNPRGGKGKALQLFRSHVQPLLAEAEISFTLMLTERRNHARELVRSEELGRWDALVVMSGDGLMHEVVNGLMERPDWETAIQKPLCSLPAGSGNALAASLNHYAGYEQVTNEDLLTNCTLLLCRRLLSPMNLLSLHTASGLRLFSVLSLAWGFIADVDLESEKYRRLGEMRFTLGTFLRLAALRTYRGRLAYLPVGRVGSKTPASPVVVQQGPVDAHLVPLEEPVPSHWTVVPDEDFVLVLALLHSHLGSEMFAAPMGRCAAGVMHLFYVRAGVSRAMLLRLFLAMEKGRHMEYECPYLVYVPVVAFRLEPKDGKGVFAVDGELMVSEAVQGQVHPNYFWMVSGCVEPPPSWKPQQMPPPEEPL

Row | Ki [2] | SMILES | further results
1 | < 1 µM | CCCCCCCCCn1ccc2cc(-c3noc([C@@H]4CCCN4C(=N)N)n3)ccc21 [Compound 17A, (S)-amino(2-(3-(1-nonyl-1H-indol-5-yl)-1,2,4-oxadiazol-5-yl)pyrrolidin-1-yl)methaniminium chloride] | –
2 | > 10 µM | C=COCc1ccc(-c2noc([C@@H]3CCCN3C(=N)N)n2)cc1C(F)(F)F [Compound 77A] | Ki [3]: > 10 µM

Continued, compound first:

Row | SMILES | Ki [2] | further results
3 | CCCCCCCCOc1ccc(-c2noc([C@@H]3[C@@H](O)CCN3/C(N)=N/O)n2)cc1C(F)(F)F [Compound 6, (2S,3S)—N,3-dihydroxy-2-(3-(4-(octyloxy)-3-(trifluoromethyl)phenyl)-1,2,4-oxadiazol-5-yl)pyrrolidine-1-carboximidamide] | – | amount of sphingosine 1-phosphate (S1P) in blood [1]: rise in S1P
4 | CCCCCCCCOc1ccc(-c2noc([C@@H]3[C@@H](O)CCN3C(=N)N)n2)cc1C(F)(F)F [Compound 6A, amino((2S,3S)-3-hydroxy-2-(3-(4-(octyloxy)-3-(trifluoromethyl)phenyl)-1,2,4-oxadiazol-5-yl)pyrrolidin-1-yl)methaniminium chloride] | < 1 µM | –
5 | CCCCCCCCc1ccc(CCC(N)(CO)CO)cc1 [fingolimod, 2-amino-2-[2-(4-octylphenyl)ethyl] propane 1,3-diol] | – | hypertension (blood pressure rise) [4]: 2-3 mmHg
